US12583839B2, “PD-L1 antagonist compound” (ADLAI NORTYE BIOPHARMA CO., LTD., priority 2019, dated 2026)

target: T1, PD-1/PD-L1 (Homo sapiens, UniProt Q9NZQ7); assay: Detection of biological activity of PD-1/PD-L1 signaling inhibition at the cellular level (NFAT luciferase reporter, PD-1/NFAT-Reporter-Jurkat cells co-cultured with TCR activator/PD-L1-CHO cells); assay type: cell-based; settings: PD-1/NFAT-Reporter-Jurkat + TCR activator/PD-L1-CHO co-culture, 6 hours; Atezolizumab as positive control
T1 construct: 60535 (PD-1/NFAT-Reporter-Jurkat); host or cells: CHO cells expressing PD-L1; Jurkat cells expressing PD-1
T1 sequence (Q9NZQ7 19-290): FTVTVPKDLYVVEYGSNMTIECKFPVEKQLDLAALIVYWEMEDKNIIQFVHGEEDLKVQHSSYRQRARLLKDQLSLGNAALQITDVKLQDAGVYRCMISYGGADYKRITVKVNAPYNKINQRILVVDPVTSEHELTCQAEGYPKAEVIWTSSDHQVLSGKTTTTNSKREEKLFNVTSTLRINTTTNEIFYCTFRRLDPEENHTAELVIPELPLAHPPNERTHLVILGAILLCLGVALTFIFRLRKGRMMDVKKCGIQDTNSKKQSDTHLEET
Excerpt: Detection of Biological Activity of PD-1/PD-L1 Signaling Inhibition at the Cellular Level
This detection method is used for evaluating the biological activity of the compounds described in the present invention at the cellular level.
This detection method uses the luciferase reporter gene method to detect the biological activity of the compound on the inhibition of PD-1/PD-L1 signal at the cellular level. PD-1/NFAT—Reporter—Jurkat cells stably express human PD-1 and express the luciferase reporter gene regulated by NFAT elements; TCR activator/PD-L1-CHO cells stably express human PD-L1 and TCR activator elements. When the two cell lines were co-cultured, the binding of PD-1/PD-L1 inhibited the TCR signaling pathway, thereby inhibiting the expression of the downstream NFAT-controlled luciferase reporter gene. When PD-1/PD-L1 antibody or inhibitor is added, this inhibitory effect is reversed and luciferase is expressed, so that the effect of PD-1/PD-L1 inhibitor on luciferase activity can be detected.
PD-1/NFAT—Reporter—Jurkat cell (Cat: 60535) and TCR activator/PD-L1-CHO cell (Cat: 60536) were purchased from BPS Bioscience. Anti-human PD-L1 antibody (Atezolizumab, Cat: A2004) was purchased from Selleck; luciferase reporter gene expression detection kit (ONE-Glo™ Luciferase Assay System, Cat: E6120) was purchased from Promega; multifunction plate reader (SpectraMax i3x) was purchased from Molecular Devices.
The PD-1/NFAT—Reporter—Jurkat cells and TCR activator/PD-L1-CHO cells were cultured according to the routine cell culture protocol.
TCR activator/PD-L1-CHO cells were harvested and seeded into a 96-well culture plate at 35,000 cells/well in a medium volume of 100 μl and incubated overnight at 37° C. The next day, the medium was discarded, compound was added and incubated for 30 minutes, while a solvent control (dimethyl sulfoxide, DMSO, final concentration of 0.1%) and PD-L1 antibody (Atezolizumab, final concentration of about 10 nM) as positive controls were set. PD-1/NFAT-reporter-Jurkat cells were then added. After culturing for 6 hours, the luciferase activity was detected according to the instructions of the luciferase detection reagent.
Using PD-L1 antibody as a positive control, calculate the inhibition rate of PD-1/PD-L1 binding of the test compound (%)=(chemiluminescence value of compound treated wells/average value of chemiluminescence value of solvent control wells−1)/(average value of chemiluminescence value of PD-L1 antibody well/average value of chemiluminescence value of solvent control well−1)×100%.
According to the above detection method, the compounds of the present invention were evaluated for their biological activity at the cellular level, and the activity results are shown in the following table.

Going from N#Cc1cncc(COc2cc(Cn3ncc4c(-c5cccc(-c6ccc(CN7CC[C@@H](O)C7)cc6)c5Cl)cccc43)c(Cl)cc2CN[C@@H](CO)C(=O)O)c1 [Compound 1] to N#Cc1cncc(COc2cc(Cn3ncc4c(-c5cccc(-c6ccc(CCN7CC[C@@H](O)C7)cc6)c5Cl)cccc43)c(Cl)cc2CN[C@@H](CO)C(=O)O)c1 [Compound 18], the EC50 rises from 83 nM to 562 nM (6.8-fold).

Compared with Cc1c(-c2ccc(CNC[C@@H]3CCC(=O)N3)cc2)cccc1-c1cccc2c1cnn2Cc1cc(OCc2cncc(C#N)c2)c(CN[C@@H](CO)C(=O)O)cc1Cl [Compound 2], N#Cc1cncc(COc2cc(Cn3ncc4c(-c5cccc(-c6ccc(CNC[C@@H]7CCC(=O)N7)cc6)c5F)cccc43)c(Cl)cc2CN[C@@H](CO)C(=O)O)c1 [Compound 12] is 3-fold higher in EC50: 85 nM for the first, 255 nM for the second. The first is the more potent here.

N#Cc1cncc(COc2cc(Cn3ncc4c(-c5cccc(-c6ccc(CN7CCOCC7)cc6)c5Cl)cccc43)c(Cl)cc2CN[C@@H](CO)C(=O)O)c1 [Compound 3] and N#Cc1cncc(COc2cc(Cn3ncc4c(-c5cccc(-c6ccc(CCCN7CC[C@@H](O)C7)cc6)c5Cl)cccc43)c(Cl)cc2CN[C@@H](CO)C(=O)O)c1 [Compound 19] are within 1.5-fold of each other in EC50: 395 nM for the first, 510 nM for the second.

First: CN(CCO)Cc1ccc(-c2cccc(-c3cccc4c3cnn4Cc3cc(OCc4cncc(C#N)c4)c(CN[C@@H](CO)C(=O)O)cc3Cl)c2Cl)cc1 [Compound 4]
Second: N#Cc1cncc(COc2cc(Cn3ncc4c(-c5cccc(-c6ccc(CNCCO)cc6)c5Cl)cccc43)c(Cl)cc2CN[C@@H](CO)C(=O)O)c1 [Compound 5]
The EC50 of the first is 3.6-fold higher: 206 nM for the first, 58 nM for the second.

CN(CCO[C@H]1CCOC1)Cc1ccc(-c2cccc(-c3cccc4c3cnn4Cc3cc(OCc4cncc(C#N)c4)c(CN[C@@H](CO)C(=O)O)cc3Cl)c2Cl)cc1 [Compound 6] and CN1C(=O)CC[C@H]1CNCc1ccc(-c2cccc(-c3cccc4c3cnn4Cc3cc(OCc4cncc(C#N)c4)c(CN[C@@H](CO)C(=O)O)cc3Cl)c2Cl)cc1 [Compound 7] are within 1.5-fold of each other in EC50: 228 nM for the first, 161 nM for the second.

Going from COc1cc(-c2cccc(-c3cccc4c3cnn4Cc3cc(OCc4cncc(C#N)c4)c(CN[C@@H](CO)C(=O)O)cc3Cl)c2Cl)ccc1CNC[C@@H]1CCC(=O)N1 [Compound 8] to COc1cc(-c2cccc(-c3cccc4c3cnn4Cc3cc(OCc4cncc(C#N)c4)c(CN[C@@H](CO)C(=O)OC(C)C)cc3Cl)c2Cl)ccc1CNC[C@@H]1CCC(=O)N1 [Compound 28], the EC50 rises from 31 nM to 110 nM (3.5-fold).

Compared with N#Cc1cncc(COc2cc(Cn3ncc4c(-c5cccc(-c6ccc(CNC[C@@H]7CCC(=O)N7)cn6)c5Cl)cccc43)c(Cl)cc2CN[C@@H](CO)C(=O)O)c1 [Compound 9], N#Cc1cncc(COc2cc(Cn3ncc4c(-c5cccc(-c6ccc(CNC[C@@H]7CCC(=O)N7)nc6)c5Cl)cccc43)c(Cl)cc2CN[C@@H](CO)C(=O)O)c1 [Compound 10] is 7.2-fold lower in EC50: 591 nM for the first, 82 nM for the second.

COc1cc(CNC[C@@H]2CCC(=O)N2)ccc1-c1cccc(-c2cccc3c2cnn3Cc2cc(OCc3cncc(C#N)c3)c(CN[C@@H](CO)C(=O)O)cc2Cl)c1Cl [Compound 11] and N#Cc1cncc(COc2cc(Cn3ncc4c(-c5cccc(-c6ccc(CNC[C@@H]7CCC(=O)N7)cc6)c5C#N)cccc43)c(Cl)cc2CN[C@@H](CO)C(=O)O)c1 [Compound 13] are within 1.5-fold of each other in EC50: 112 nM for the first, 116 nM for the second.

Going from N#Cc1cncc(COc2cc(Cn3ncc4c(-c5cccc(-c6ccc(CNC[C@@H]7CCC(=O)N7)cc6)c5)cccc43)c(Cl)cc2CN[C@@H](CO)C(=O)O)c1 [Compound 14] to CC(C)OC(=O)[C@H](CO)NCc1cc(Cl)c(Cn2ncc3c(-c4cccc(-c5ccc(CNC[C@@H]6CCC(=O)N6)cc5)c4Cl)cccc32)cc1OCc1cncc(C#N)c1 [Compound 23], the EC50 rises from 339 nM to 512 nM (1.5-fold). The first is the more potent here.

Going from N#Cc1cncc(COc2cc(Cn3ncc4c(-c5cccc(-c6ccc(CNC[C@@H]7CCC(=O)N7)cc6)c5Cl)cccc43)c(Cl)cc2CNCC(=O)O)c1 [Compound 22] to N#Cc1cncc(COc2cc(Cn3ncc4c(-c5cccc(-c6ccc(CNC[C@@H]7CCC(=O)N7)cc6)c5Cl)cccc43)c(Cl)cc2CNCCO)c1 [Compound 24], the EC50 falls from 89 nM to 54 nM (1.6-fold).

N#Cc1cncc(COc2cc(Cn3ncc4c(-c5cccc(-c6ccc(CNC[C@@H]7CCC(=O)N7)cc6)c5Cl)cccc43)c(Cl)cc2CN2CCC[C@H]2C(=O)O)c1 [Compound 25] and N#Cc1cncc(COc2cc(Cn3ncc4c(-c5cccc(-c6ccc(CNC[C@@H]7CCC(=O)N7)cc6)c5Cl)cccc43)c(Cl)cc2CN2CC[C@@H](C(=O)O)C2)c1 [Compound 27] are within 1.5-fold of each other in EC50: 128 nM for the first, 133 nM for the second.

CN(Cc1cc(Cl)c(Cn2ncc3c(-c4cccc(-c5ccc(CNC[C@@H]6CCC(=O)N6)cc5)c4Cl)cccc32)cc1OCc1cncc(C#N)c1)[C@@H](CO)C(=O)O [Compound 26] and COc1cc(Cn2ncc3c(-c4cccc(-c5ccc(CNC[C@@H]6CCC(=O)N6)cc5)c4Cl)cccc32)c(Cl)cc1CN[C@@H](CO)C(=O)O [Compound 30] are within 1.5-fold of each other in EC50: 86 nM for the first, 82 nM for the second.

Going from COc1nc(-c2cccc(-c3cccc4c3cnn4Cc3cc(OCc4cncc(C#N)c4)c(CNCCO)cc3Cl)c2Cl)ccc1CNC[C@@H]1CCC(=O)N1 [Compound 29] to COc1cc(-c2cccc(-c3cccc4c3cnn4Cc3cc(OC)c(CN[C@@H](CO)C(=O)O)cc3Cl)c2Cl)ccc1CNC[C@@H]1CCC(=O)N1 [Compound 53], the EC50 falls from 66 nM to 24 nM (2.8-fold). The second is the more potent here.

First: COc1cc(Cn2ncc3c(-c4cccc(-c5ccc(CNC[C@@H]6CCC(=O)N6)cc5)c4Cl)cccc32)c(Cl)cc1CNC[C@H](O)CC(=O)O [Compound 31]
Second: COc1cc(Cn2ncc3c(-c4cccc(-c5ccc(CNC[C@@H]6CCC(=O)N6)cc5)c4Cl)cccc32)c(Cl)cc1CNCC(=O)O [Compound 32]
The EC50 of the first is 3-fold lower: 82 nM for the first, 244 nM for the second.

Compared with COc1cc(Cn2ncc3c(-c4cccc(-c5ccc(CNC[C@@H]6CCC(=O)N6)cc5)c4Cl)cccc32)c(Cl)cc1CN1CC[C@@H](C(=O)O)C1 [Compound 33], COc1cc(Cn2ncc3c(-c4cccc(-c5ccc(CNC[C@@H]6CCC(=O)N6)cc5)c4Cl)cccc32)c(Cl)cc1CN1CCC[C@@H](C(=O)O)C1 [Compound 35] is 1.7-fold higher in EC50: 511 nM for the first, 859 nM for the second. The first is the more potent here.

Compared with COc1cc(Cn2ncc3c(-c4cccc(-c5ccc(CNC[C@@H]6CCC(=O)N6)cc5)c4Cl)cccc32)c(Cl)cc1CN1CCC[C@H](C(=O)O)C1 [Compound 36], COc1cc(Cn2ncc3c(-c4cccc(-c5ccc(CNC[C@@H]6CCC(=O)N6)cc5)c4Cl)cccc32)c(Cl)cc1CN1CC(C(=O)O)C1 [Compound 38] is 1.8-fold higher in EC50: 459 nM for the first, 809 nM for the second.

Going from COc1cc(Cn2ncc3c(-c4cccc(-c5ccc(CNC[C@@H]6CCC(=O)N6)cc5)c4Cl)cccc32)c(Cl)cc1CN1CCC(C(=O)O)CC1 [Compound 37] to COc1cc(Cn2ncc3c(-c4cccc(-c5ccc(CNC[C@@H]6CCC(=O)N6)cc5)c4Cl)cccc32)c(Cl)cc1CN1CCC[C@H]1C(=O)O [Compound 43], the EC50 falls from 977 nM to 537 nM (1.8-fold).

COc1cc(Cn2ncc3c(-c4cccc(-c5ccc(CNC[C@@H]6CCC(=O)N6)cc5)c4Cl)cccc32)c(Cl)cc1CNCC1CCC(C(=O)O)CC1 (stereo partly shown) [Compound 39] and COc1cc(Cn2ncc3c(-c4cccc(-c5ccc(CNC[C@@H]6CCC(=O)N6)cc5)c4Cl)cccc32)c(Cl)cc1CNC1CCC(C(=O)O)CC1 (stereo partly shown) [Compound 40] are within 1.5-fold of each other in EC50: 298 nM for the first, 213 nM for the second.

Going from COc1cc(Cn2ncc3c(-c4cccc(-c5ccc(CNC[C@@H]6CCC(=O)N6)cc5)c4Cl)cccc32)c(Cl)cc1CNC1CCC(C(=O)O)CC1 (stereo partly shown) [Compound 41] to COc1cc(Cn2ncc3c(-c4cccc(-c5ccc(CNC[C@@H]6CCC(=O)N6)cc5)c4Cl)cccc32)c(Cl)cc1CN(C)CC1CCC(C(=O)O)CC1 (stereo partly shown) [Compound 47], the EC50 rises from 295 nM to 499 nM (1.7-fold). The first is the more potent here.

Going from COc1cc(Cn2ncc3c(-c4cccc(-c5ccc(CNC[C@@H]6CCC(=O)N6)cc5)c4Cl)cccc32)c(Cl)cc1CN1C[C@H](O)C[C@H]1C(=O)O [Compound 42] to COc1cc(Cn2ncc3c(-c4cccc(-c5ccc(CNC[C@@H]6CCC(=O)N6)c(C)c5)c4Cl)cccc32)c(Cl)cc1CN1CC[C@@H](C(=O)O)C1 [Compound 48], the EC50 rises from 348 nM to 654 nM (1.9-fold). The first is the more potent here.

First: COc1cc(Cn2ncc3c(-c4cccc(-c5ccc(CNC[C@@H]6CCC(=O)N6)c(Cl)c5)c4Cl)cccc32)c(Cl)cc1CN1CC[C@@H](C(=O)O)C1 [Compound 49]
Second: COc1cc(-c2cccc(-c3cccc4c3cnn4Cc3cc(OC)c(CN4CC[C@@H](C(=O)O)C4)cc3Cl)c2Cl)ccc1CNC[C@@H]1CCC(=O)N1 [Compound 52]
The EC50 of the first is 9.2-fold higher: 850 nM for the first, 92 nM for the second.

Molecule COc1cc(Cn2ncc3c(-c4cccc(-c5ccc(CNC[C@@H]6CCC(=O)N6)c(OC(F)(F)F)c5)c4Cl)cccc32)c(Cl)cc1CN1CC[C@@H](C(=O)O)C1 [Compound 51] has an EC50 of 692 nM.
